For 24 molecules, IC50 results are on record in patent publication US10301267B2, “Compounds” (AstraZeneca AB, priority 2006, dated 2019).

pIC50: −log10 of the molar value. Where two headings read alike, the source gives them in different places. A value given as a limit tells only on which side of the number the result lay.

Format in all cases: biochemical
Experiment [1] concerns the target T1, FGFR1 active kinase (Homo sapiens, UniProt P11362). The experiment in a line: FGFR Kinase assay - Caliper. On FGFR Kinase assay - Caliper, IC50: 408 µM ATP.
Experiment [2] addresses T1, FGFR1 active kinase. The experiment in a line: FGFR Kinase assay - Caliper Echo Dosing. The conditions noted are these: FGFR1 7.2 nM, 408 uM ATP, acoustic dosing; geometric mean of n.
Experiment [3] addresses T2, His6-tagged FGFR kinase domain (Homo sapiens, UniProt P11362, C488A/C584S).
T2 construct: FGFR kinase domain (amino acids 458-765, C488A, C584S) N-terminally fused to a His6-tag and TEV cleavage site; His6-tag plus linker and TEV cleavage site (printed as X1); made in house
The experiment in a line: FGFR Kinase assay - Elisa. The method, then: To determine inhibition of FGFR activity, kinase assays were conducted using ELISA (Enzyme-Linked Immunosorbent Assay) technology.
Kinase activity assays were performed in 384-well polypropylene plates (Matrix, Catalogue No. 4311. Matrix are part of Thermo Fisher Scientific, 22 Friars Drive, Hudson, N.H. 03051, USA) with a total volume of 40 μl in each well. Each well was coated with 2 μg of polyEAY substrate (Sigma, Catalogue No. P3899) at 4° C. overnight. The plates were then washed once with 100 μl PBS and once with 100 μl 50 mM HEPES (pH 7.4) prior to the addition of the kinase assay reagents. Reactions contained His6-tagged FGFR kinase domain (FGFR kinase domain (amino acids 458-765, C488A, C584S) N-terminally fused to a His6-tag and TEV cleavage site encoded by the following sequence; [[…]]. The final alanine denotes the start of the FGFR protein sequence. The resultant protein was expressed and purified based on Mohammadi et al, Cell Vol 86, 577-587 (1996). Each kinase reaction contained 0.1 ng His6-tagged FGFR kinase domain, 50 mM HEPES (pH 7.4), 0.1 mM Na3VO4, 0.1 mM DTT, 0.05% (v/v) Triton X100, 20 mM MgCl2, 160 μM ATP. Various concentrations of test compounds were each added in 5% (v/v) DMSO to yield a final assay DMSO concentration of 1.25% (v/v). The kinase reactions were incubated at room temperature for 45 minutes and stopped by washing the plate three times with 100 μl PBS plus 0.05% Tween. 40 μl of a one in 10000 dilution of 4G10-HRP antibody (Upstate Biotechnology, UBI 16-105. Upstate are part of Millipore Corporation, 290 Concord Road, Billerca Mass. 01821 USA) made up in 0.5% (w/v) BSA/PBS was then added to each well and the plates incubated at room temperature for one hour. Following this, the plates were then washed repeatedly with 100 μl PBS plus 0.05% Tween to remove all traces of the antibody solution. 40 μl of 50 μg/ml 3,3′,5,5′-Tetramethylbenzidine (Sigma, Catalogue No. T2885), 0.05M phosphate-citrate buffer, containing 0.03% sodium perborate was added to each well and the plates incubated at room temperature for twelve minutes. The colour reaction was stopped by the addition of 20 μl 2M H2SO4 and the plates read at 450 nm on a Spectrafluor Plus (Tecan Trading AG, Switzerland). In the assay, compounds were tested at a range of concentrations.
Percentage inhibition at 1 uM, as expressed herein, is a calculated value based on the curve fit that was generated experimentally. From the fitted curve plot, the effect of compound at a concentration of 1 uM was calculated as a percentage inhibition. The IC50 value is the concentration of test compound that inhibits 50% of FGFR kinase activity.

[4] abbreviates: FGFR1 […], 408 uM ATP, mean of n as printed, read-out: FGFR Kinase assay - Caliper, IC50.
[5] abbreviates: FGFR inhibition test, Caliper, read-out: Activity class (FGFR Kinase assay - Caliper).
Where [6] appears, read: FGFR inhibition test, Elisa, read-out: Activity class (FGFR Kinase assay - Elisa).

T2 sequence (P11362 458-765 C488A/C584S): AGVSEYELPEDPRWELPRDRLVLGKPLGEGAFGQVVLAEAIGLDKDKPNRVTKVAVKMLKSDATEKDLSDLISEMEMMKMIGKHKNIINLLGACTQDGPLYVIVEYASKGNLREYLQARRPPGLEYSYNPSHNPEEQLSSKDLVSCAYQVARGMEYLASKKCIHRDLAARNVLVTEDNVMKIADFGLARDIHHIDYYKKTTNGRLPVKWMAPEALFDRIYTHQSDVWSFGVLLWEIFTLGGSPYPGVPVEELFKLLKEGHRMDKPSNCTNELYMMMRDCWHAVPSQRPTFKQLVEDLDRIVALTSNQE
T1 sequence (P11362 22-822): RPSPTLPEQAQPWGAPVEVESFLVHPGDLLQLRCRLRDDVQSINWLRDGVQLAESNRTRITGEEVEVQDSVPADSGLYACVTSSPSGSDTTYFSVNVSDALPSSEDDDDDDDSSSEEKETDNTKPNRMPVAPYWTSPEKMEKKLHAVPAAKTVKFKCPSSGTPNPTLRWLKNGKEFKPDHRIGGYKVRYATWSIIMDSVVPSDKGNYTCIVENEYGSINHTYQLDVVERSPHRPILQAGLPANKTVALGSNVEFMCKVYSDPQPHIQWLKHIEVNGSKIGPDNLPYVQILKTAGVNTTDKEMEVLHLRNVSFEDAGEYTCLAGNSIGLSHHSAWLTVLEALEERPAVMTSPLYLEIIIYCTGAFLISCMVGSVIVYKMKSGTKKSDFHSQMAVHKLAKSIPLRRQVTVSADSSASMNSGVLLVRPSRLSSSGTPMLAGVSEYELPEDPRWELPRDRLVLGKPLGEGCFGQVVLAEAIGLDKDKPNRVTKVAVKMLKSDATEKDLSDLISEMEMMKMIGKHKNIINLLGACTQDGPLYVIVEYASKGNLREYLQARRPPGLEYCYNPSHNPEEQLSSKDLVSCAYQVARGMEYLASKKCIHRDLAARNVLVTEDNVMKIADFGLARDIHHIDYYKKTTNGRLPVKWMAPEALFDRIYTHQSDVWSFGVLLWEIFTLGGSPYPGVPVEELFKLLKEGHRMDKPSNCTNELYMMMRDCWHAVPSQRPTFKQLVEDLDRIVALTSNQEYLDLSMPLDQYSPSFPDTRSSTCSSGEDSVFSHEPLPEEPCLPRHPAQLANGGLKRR

`COc1cc(CCc2cc(NC(=O)c3ccc(N4CCN(C5CC5)CC4)cc3)n[nH]2)cc(OC)c1` [Example 88, 4-(4-Cyclopropylpiperazin-1-yl)-N-[5-[2-(3,5-dimethoxyphenyl)ethyl]-1H-pyrazol-3-yl]benzamide]: the values for the pIC50 at FGFR1 active kinase [1] (setting [4]) and on FGFR1 active kinase [2] were 6.81 and 9.11, respectively.

On to `COc1cccc(CCc2cc(NC(=O)c3ccc(C)nc3)[nH]n2)c1` [Example 13, N-[5-[2-(3-Methoxyphenyl)ethyl]-2H-pyrazol-3-yl]-6-methyl-pyridine-3-carboxamide], for which the results for the pIC50 (at FGFR1 active kinase [1] (setting [4]); at FGFR1 active kinase [1] (setting [5]); in experiment [3] (setting [6])) were 6.02, 6.00 to 6.52 and 6.00 to 6.52, respectively.

For the molecule `COc1cc(COc2cc(NC(=O)c3ccc(N4CCN(C)CC4)cc3)[nH]n2)cc(OC)c1` [Example 12, N-[5-[(3,5-dimethoxyphenyl)methoxy]-2H-pyrazol-3-yl]-4-(4-methylpiperazin-1-yl)benzamide], the pIC50 was more than 6.52 in experiment [3] (setting [6]) and 7.22 in experiment [3] (polyEAY substrate, 160 μM ATP, read-out: FGFR Kinase assay - Elisa, IC50).

Turning to `C#CCNc1ccc(C(=O)Nc2cc(CCc3cccc(OC)c3)n[nH]2)nc1` [Example 17, N-[5-[2-(3-Methoxyphenyl)ethyl]-2H-pyrazol-3-yl]-5-(prop-2-ynylamino)pyridine-2-carboxamide], the pIC50 at FGFR1 active kinase [1] (setting [4]) was 6.18; at FGFR1 active kinase [1] (setting [5]), 6.00 to 6.52; in experiment [3] (setting [6]), 6.00 to 6.52.

Regarding `COc1ccc(C(=O)Nc2cc(CCc3cc(OC)cc(OC)c3)n[nH]2)cc1` [Example 3, N-[5-[2-(3,5-dimethoxyphenyl)ethyl]-2H-pyrazol-3-yl]-4-methoxy-benzamide], the pIC50 on FGFR1 active kinase [1] (setting [4]) is 6.88; on FGFR1 active kinase [1] (setting [5]), more than 6.52; in experiment [3] (setting [6]), more than 6.52.

Regarding `COc1cc(CCc2cc(NC(=O)c3cnc(N4CCN(C)CC4)nc3)[nH]n2)cc(OC)c1` [Example 85, N-[5-[2-(3,5-Dimethoxyphenyl)ethyl]-2H-pyrazol-3-yl]-2-(4-methylpiperazin-1-yl)pyrimidine-5-carboxamide], the results for the pIC50 on FGFR1 active kinase [1] (setting [4]) and at FGFR1 active kinase [2] were 6.93 and 7.83, respectively.

With `CCN1CCN(c2ccc(C(=O)Nc3cc(OCc4cc(OC)cc(OC)c4)n[nH]3)s2)CC1` [Example 141, N-[5-[(3,5-dimethoxyphenyl)methoxy]-2H-pyrazol-3-yl]-5-(4-ethylpiperazin-1-yl)thiophene-2-carboxamide], the pIC50 against FGFR1 active kinase [2] is 9.07.

`COc1cc(CCc2cc(NC(=O)c3ccc(N4C[C@@H](C)N(C)[C@@H](C)C4)cc3)[nH]n2)cc(OC)c1` [Example 155, N-[5-[2-(3,5-dimethoxyphenyl)ethyl]-2H-pyrazol-3-yl]-4-[(3R,5S)-3,4,5-trimethylpiperazin-1-yl]benzamide] showed a pIC50 against FGFR1 active kinase [2] of 9.35.

Turning to `COc1cc(COc2cc(NC(=O)c3cnc(Cl)cn3)[nH]n2)cc(OC)c1` [5-Chloro-N-[5-[(3,5-dimethoxyphenyl)methoxy]-2H-pyrazol-3-yl]pyrazine-2-carboxamide], at FGFR1 active kinase [2], the pIC50 is 7.22.

`COc1cc(CCc2cc(NC(=O)c3ccc(N4CCN(C(=O)OC(C)(C)C)CC4)s3)[nH]n2)cc(OC)c1` [Example 102, tert-Butyl 4-[5-[[5-[2-(3,5-dimethoxyphenyl)ethyl]-2H-pyrazol-3-yl]carbamoyl]thiophen-2-yl]piperazine-1-carboxylate] showed a pIC50 on FGFR1 active kinase [2] of 7.55.

Consider `COc1cc(CCc2cc(NC(=O)c3cnc(C4=CCN(C)CC4)cn3)[nH]n2)cc(OC)c1` [Example 153, N-[5-[2-(3,5-dimethoxyphenyl)ethyl]-2H-pyrazol-3-yl]-5-(1-methyl-3,6-dihydro-2H-pyridin-4-yl)pyrazine-2-carboxamide], for which the pIC50 against FGFR1 active kinase [2] is 9.09.

On FGFR1 active kinase [2], `CCN(CC)C1CCN(c2cnc(C(=O)Nc3cc(CCc4cc(OC)cc(OC)c4)n[nH]3)cn2)C1` (stereo not drawn) [Example 158, 5-(3-diethylaminopyrrolidin-1-yl)-N-[5-[2-(3,5-dimethoxyphenyl)ethyl]-2H-pyrazol-3-yl]pyrazine-2-carboxamide] showed a pIC50 of 8.54.

As to `COc1cc(COc2cc(NC(=O)c3ccc(N4CCN5CCCC5C4)cc3)[nH]n2)cc(OC)c1` (stereo not drawn) [Example 104, 4-(3,4,6,7,8,8a-hexahydro-1H-pyrrolo[2,1-c]pyrazin-2-yl)-N-[5-[(3,5-dimethoxyphenyl)methoxy]-2H-pyrazol-3-yl]benzamide], the pIC50 on FGFR1 active kinase [2] was 8.89.

Molecule `COc1cc(CCc2cc(NC(=O)c3cnc(N4CCN(C5CC5)CC4)nc3)[nH]n2)cc(OC)c1` [Example 126, 2-(4-cyclopropylpiperazin-1-yl)-N-[5-[2-(3,5-dimethoxyphenyl)ethyl]-2H-pyrazol-3-yl]pyrimidine-5-carboxamide] had a pIC50 at FGFR1 active kinase [2] of 8.44.

In the case of `COc1cc(CCc2cc(NC(=O)c3ccc(N4CCCNCC4)cc3)[nH]n2)cc(OC)c1` [Example 145, 4-(1,4-diazepan-1-yl)-N-[5-[2-(3,5-dimethoxyphenyl)ethyl]-2H-pyrazol-3-yl]benzamide], at FGFR1 active kinase [2], the pIC50 was 9.15.

As for `COc1cc(COc2cc(NC(=O)c3ccc(N4CCN(C)C(C)C4)cc3)[nH]n2)cc(OC)c1` (stereo not drawn) [Example 101, N-[5-[(3,5-dimethoxyphenyl)methoxy]-2H-pyrazol-3-yl]-4-(3,4-dimethylpiperazin-1-yl)benzamide], at FGFR1 active kinase [2], the pIC50 is 7.68.

In turn, `COc1cc(CCc2cc(NC(=O)c3cnc(N4CCN(C5CC5)CC4)cn3)[nH]n2)cc(OC)c1` [Example 113, 5-(4-Cyclopropylpiperazin-1-yl)-N-[5-[2-(3,5-dimethoxyphenyl)ethyl]-2H-pyrazol-3-yl]pyrazine-2-carboxamide] gave a pIC50 against FGFR1 active kinase [2] of 8.64.

With `COc1cc(CCc2cc(NC(=O)c3cnc(N4CCN5CCCCC5C4)cn3)[nH]n2)cc(OC)c1` (stereo not drawn) [Example 105, 5-(1,3,4,6,7,8,9,9a-Octahydropyrido[2,1-c]pyrazin-2-yl)-N-[5-[2-(3,5-dimethoxyphenyl)ethyl]-2H-pyrazol-3-yl]pyrazine-2-carboxamide], at FGFR1 active kinase [2], the pIC50 was 6.89.

In the case of `COc1cc(CCc2cc(NC(=O)c3ccc(N4CCCN(C5CC5)CC4)cc3)[nH]n2)cc(OC)c1` [Example 165, 4-(4-cyclopropyl-1,4-diazepan-1-yl)-N-[5-[2-(3,5-dimethoxyphenyl)ethyl]-2H-pyrazol-3-yl]benzamide], the pIC50 on FGFR1 active kinase [2] is 10.19.

`COc1cc(CCc2cc(NC(=O)c3ccc(N4CCCN(C)CC4)cc3)[nH]n2)cc(OC)c1` [Example 156, N-[5-[2-(3,5-dimethoxyphenyl)ethyl]-2H-pyrazol-3-yl]-4-(4-methyl-1,4-diazepan-1-yl)benzamide] had a pIC50 against FGFR1 active kinase [2] of 9.09.

Turning to `COc1cc(COc2cc(NC(=O)c3ccc(N4CCNC(C)(C)C4)cc3)[nH]n2)cc(OC)c1` [Example 111, N-[5-[(3,5-dimethoxyphenyl)methoxy]-2H-pyrazol-3-yl]-4-(3,3-dimethylpiperazin-1-yl)benzamide], the pIC50 against FGFR1 active kinase [2] is 9.12.

With `COc1cc(CCc2cc(NC(=O)c3cnc(C4CCN(C)CC4)nc3)[nH]n2)cc(OC)c1` [Example 162, N-[5-[2-(3,5-dimethoxyphenyl)ethyl]-2H-pyrazol-3-yl]-2-(1-methylpiperidin-4-yl)pyrimidine-5-carboxamide], the pIC50 on FGFR1 active kinase [2] is 7.44.

As for `COc1cc(CCc2cc(NC(=O)c3cnc(N4C[C@@H](C)N(C)[C@@H](C)C4)nc3)[nH]n2)cc(OC)c1` [Example 136, N-[5-[2-(3,5-dimethoxyphenyl)ethyl]-2H-pyrazol-3-yl]-2-[(3R,5S)-3,4,5-trimethylpiperazin-1-yl]pyrimidine-5-carboxamide], the pIC50 at FGFR1 active kinase [2] was 8.72.

Consider `COc1cc(CCc2cc(NC(=O)c3ccc(N4CC(C)N(C)C(C)C4)cc3)n[nH]2)cc(OC)c1` (stereo not drawn) [Example 96, N-[5-[2-(3,5-Dimethoxyphenyl)ethyl]-1H-pyrazol-3-yl]-4-(3,4,5-trimethylpiperazin-1-yl)benzamide], for which the pIC50 against FGFR1 active kinase [2] is 9.27.
